This assay deals with T1, full-length beta-Catenin (Uniprot ID P35222) (Homo sapiens, UniProt P35222).
T1 construct: 10 nM full-length beta-Catenin (Uniprot ID P35222)
T1 sequence (P35222 1-781): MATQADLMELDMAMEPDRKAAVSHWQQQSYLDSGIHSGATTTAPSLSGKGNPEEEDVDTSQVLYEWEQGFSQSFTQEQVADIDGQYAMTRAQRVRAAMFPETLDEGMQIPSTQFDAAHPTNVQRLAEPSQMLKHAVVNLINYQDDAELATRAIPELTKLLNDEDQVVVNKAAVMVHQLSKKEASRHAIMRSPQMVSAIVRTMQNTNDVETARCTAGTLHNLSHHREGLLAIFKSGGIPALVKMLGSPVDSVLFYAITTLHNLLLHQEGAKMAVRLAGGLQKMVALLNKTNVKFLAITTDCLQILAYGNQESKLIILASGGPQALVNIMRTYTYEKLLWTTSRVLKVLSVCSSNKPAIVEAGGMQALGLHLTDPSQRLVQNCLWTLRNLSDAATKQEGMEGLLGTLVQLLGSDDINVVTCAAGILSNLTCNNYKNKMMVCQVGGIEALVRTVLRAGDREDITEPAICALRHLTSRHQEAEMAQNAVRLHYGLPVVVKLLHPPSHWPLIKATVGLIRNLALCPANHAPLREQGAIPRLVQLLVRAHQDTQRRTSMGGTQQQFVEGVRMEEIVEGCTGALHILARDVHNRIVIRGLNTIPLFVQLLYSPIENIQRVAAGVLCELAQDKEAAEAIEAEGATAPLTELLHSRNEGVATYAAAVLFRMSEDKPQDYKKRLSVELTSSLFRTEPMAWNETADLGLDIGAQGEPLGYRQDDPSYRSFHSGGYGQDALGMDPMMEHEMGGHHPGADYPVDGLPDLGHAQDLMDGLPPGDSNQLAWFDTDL
Description: Fluorescence polarization IC50 (beta-catenin / 5FAM-TCF4 10-53 competition). The assay is classed as binding. On the technique in general: Polarisation of emitted light reports the rotation of a fluorescent probe.

[1] abbreviates: fluorescence polarization, read-out: beta-Catenin FP IC50.
The mark [2] stands for this setting: beta-Catenin FP IC50, fluorescence polarization.
Setting [3] is: fluorescence polarization, beta-catenin, read-out: FP EC50.

In US20240116985A1, “STAPLED PEPTIDES AND METHODS THEREOF” (priority 2020, published 2024) one finds IC50 data, which are given here for 14 molecules.

SMILES strings stand for the structures. Where two headings read alike, the source gives them in different places.

As for `CCCCCCCC(=O)N1CCC[C@]12CC=CCCCC1(CCCC=CCCCOC(=O)N3CC[C@@](C(=O)N[C@@H](Cc4ccccc4)C(=O)N[C@@H](Cc4csc5ccccc45)C(=O)N[C@@H](CO)C(N)=O)(C3)NC(=O)[C@H](CO)NC(=O)[C@H](Cc3ccccc3)NC(=O)[C@H](C)NC(=O)[C@H](C)NC(=O)[C@H](CC(=O)O)NC(=O)[C@H](CC(=O)O)NC1=O)NC(=O)[C@H](CC(C)(C)C)NC(=O)[C@H](CC(=O)O)NC2=O` (stereo partly drawn) [I-1355, Oct-PL3-Asp-Npg-B5-Asp-Asp-Ala-Ala-Phe-Ser-PyrS2-Phe-BztA-Ser-NH2], the IC50 under setting [1] stood at 0.213 µM.
Still for that read-out and setting: the same measure for `CC(=O)N1CCC[C@]12CC=CCCCC1(CCCC=CCCCCCC[C@@](C)(C(=O)N[C@@H](Cc3ccsc3)C(=O)N[C@@H](Cc3csc4ccccc34)C(=O)N[C@H](CO)[C@@H](C)O)NC(=O)[C@H](CCO)NC(=O)[C@H](Cc3ccccc3)NC(=O)[C@H](C)NC(=O)[C@H](C)NC(=O)[C@H](CC(=O)O)NC(=O)[C@H](CC(=O)O)NC1=O)NC(=O)[C@H](CC(C)(C)C)NC(=O)[C@H](CC(=O)O)NC2=O` (stereo partly drawn) [I-1390, Ac-PL3-Asp-Npg-B5-Asp-Asp-Ala-Ala-Phe-Hse-S8-3Thi-BztA-Thro1]: 0.016 µM; for `CC(=O)N1CCC[C@]12CC=CCCCC1(CCCC=CCCCCCC[C@@](C)(C(=O)N[C@@H](Cc3ccccc3C(F)(F)F)C(=O)N[C@@H](Cc3csc4ccccc34)C(=O)N[C@H](CO)[C@@H](C)O)NC(=O)[C@H](CCO)NC(=O)[C@H](Cc3ccccc3)NC(=O)[C@H](C)NC(=O)[C@H](C)NC(=O)[C@H](CC(=O)O)NC(=O)[C@H](CC(=O)O)NC1=O)NC(=O)[C@H](CC(C)(C)C)NC(=O)[C@H](CC(=O)O)NC2=O` (stereo partly drawn) [I-1398, Ac-PL3-Asp-Npg-B5-Asp-Asp-Ala-Ala-Phe-Hse-S8-2F3MeF-BztA-Thro1]: 0.073 µM; for `CC(=O)N1CCC[C@]12CC=CCCCC1(CCCC=CCCCOC(=O)N3CC[C@@](C(=O)N[C@@H](Cc4ccccc4)C(=O)N[C@@H](Cc4csc5ccccc45)C(=O)N[C@@H](CCC(N)=O)C(N)=O)(C3)NC(=O)[C@H](CC(C)C)NC(=O)[C@H](Cc3ccccc3)NC(=O)[C@H](C)NC(=O)[C@H](C)NC(=O)[C@H](CC(=O)O)NC(=O)[C@H](CC(=O)O)NC1=O)NC(=O)[C@H](CC(C)C)NC(=O)[C@H](CC(=O)O)NC2=O` (stereo partly drawn) [I-1402, Ac-PL3-Asp-Leu-B5-Asp-Asp-Ala-Ala-Phe-Leu-PyrS2-Phe-BztA-Gln-NH2]: 0.009 µM.
`CC(=O)N1CCC[C@]12CC=CCCCC1(CCCC=CCCCOC(=O)N3CC[C@@](C(=O)N[C@@H](Cc4ccsc4)C(=O)N[C@@H](Cc4csc5ccccc45)C(=O)N[C@@H](CC(C)C)C(N)=O)(C3)NC(=O)[C@H](CC(C)C)NC(=O)[C@H](Cc3ccccc3)NC(=O)[C@H](C)NC(=O)[C@H](C)NC(=O)[C@H](CC(=O)O)NC(=O)[C@H](CC(=O)O)NC1=O)NC(=O)[C@H](CC(N)=O)NC(=O)[C@H](CC(=O)O)NC2=O` (stereo partly drawn) [I-1413, Ac-PL3-Asp-Asn-B5-Asp-Asp-Ala-Ala-Phe-Leu-PyrS2-3Thi-BztA-Leu-NH2] registered an IC50 under setting [2] of 0.074 µM.
In the case of `CC(=O)N1CCC[C@]12CC=CCCCC1(CCCC=CCCCOC(=O)N3CC[C@@](C(=O)N[C@@H](Cc4ccsc4)C(=O)N[C@@H](Cc4csc5ccccc45)C(=O)N[C@@H](CC(C)C)C(N)=O)(C3)NC(=O)[C@H](CC(C)C)NC(=O)[C@H](Cc3ccccc3)NC(=O)[C@H](C)NC(=O)[C@H](C)NC(=O)[C@H](CC(=O)O)NC(=O)[C@H](CC(=O)O)NC1=O)NC(=O)[C@H]([C@@H](C)O)NC(=O)[C@H](CC(=O)O)NC2=O` (stereo partly drawn) [I-1415, Ac-PL3-Asp-Thr-B5-Asp-Asp-Ala-Ala-Phe-Leu-PyrS2-3Thi-BztA-Leu-NH2], the IC50 under setting [2] worked out at 0.072 µM.
On to `CC(=O)N1CCC[C@]12CC=CCCCC1(CCCC=CCCCOC(=O)N3CC[C@@](C(=O)N[C@@H](Cc4ccccc4Cl)C(=O)N[C@@H](Cc4csc5ccccc45)C(=O)N[C@@H](CC(C)C)C(N)=O)(C3)NC(=O)[C@H](CC(C)C)NC(=O)[C@H](Cc3ccccc3)NC(=O)[C@H](C)NC(=O)[C@H](C)NC(=O)[C@H](CC(=O)O)NC(=O)[C@H](CC(=O)O)NC1=O)NC(=O)[C@H](CC(C)(C)C)NC(=O)[C@H](CC(=O)O)NC2=O` (stereo partly drawn) [I-1416, Ac-PL3-Asp-Npg-B5-Asp-Asp-Ala-Ala-Phe-Leu-PyrS2-2C1F-BztA-Leu-NH2], for which the IC50 is, setting by setting: under setting [3], 0.057 µM; under setting [1], 0.057 µM.
`CC(=O)N1CCC[C@]12CC=CCCCC1(CCCC=CCCCOC(=O)N3CC[C@@](C(=O)N[C@@H](Cc4ccccc4Cl)C(=O)N[C@@H](Cc4csc5ccccc45)C(=O)N[C@@H](CC(C)C)C(N)=O)(C3)NC(=O)[C@H](CC(C)C)NC(=O)[C@H](Cc3ccccc3)NC(=O)[C@H](C)NC(=O)[C@H](C)NC(=O)[C@H](CC(=O)O)NC(=O)[C@H](CC(=O)O)NC1=O)NC(=O)[C@H](CC(C)(C)C)NC(=O)[C@H](CC(=O)O)NC2=O` (stereo partly drawn) [I-1417, Ac-PL3-Asp-Npg-B5-Asp-Asp-Ala-Ala-Phe-Leu-PyrS2-2C1F-BztA-Leu-NH2]: the IC50 under setting [3] stood at 0.198 µM and the IC50 under setting [1] stood at 0.198 µM.
With `CC(=O)N1CCC[C@]12CC=CCCCC1(CCCC=CCCCOC(=O)N3CC[C@@](C(=O)N[C@@H](Cc4ccccc4Cl)C(=O)N[C@@H](Cc4csc5ccccc45)C(=O)N[C@@H](CC(C)C)C(N)=O)(C3)NC(=O)[C@H](CC(C)C)NC(=O)[C@H](Cc3ccccc3)NC(=O)[C@H](C)NC(=O)[C@H](C)NC(=O)[C@H](CC(=O)O)NC(=O)[C@H](CC(=O)O)NC1=O)NC(=O)[C@H](CC(C)C)NC(=O)[C@H](CC(=O)O)NC2=O` (stereo partly drawn) [I-1419, Ac-PL3-Asp-Leu-B5-Asp-Asp-Ala-Ala-Phe-Leu-PyrS2-2C1F-BztA-Leu-NH2], the IC50 runs as follows: under setting [3], 0.152 µM; under setting [1], 0.152 µM.
In the case of `CCCC[C@@H]1NC(=O)[C@H](CC(=O)O)NC(=O)[C@]2(CC=CCCCC3(CCCC=CCCCOC(=O)N4CC[C@@](C(=O)N[C@@H](Cc5ccccc5Cl)C(=O)N[C@@H](Cc5csc6ccccc56)C(=O)N[C@@H](CC(C)C)C(N)=O)(C4)NC(=O)[C@H](CC(C)C)NC(=O)[C@H](Cc4ccccc4)NC(=O)[C@H](C)NC(=O)[C@H](C)NC(=O)[C@H](CC(=O)O)NC(=O)[C@H](CC(=O)O)NC3=O)NC1=O)CCCN2C(C)=O` (stereo partly drawn) [I-1420, Ac-PL3-Asp-nLeu-B5-Asp-Asp-Ala-Ala-Phe-Leu-PyrS2-2C1F-BztA-Leu-NH2], the IC50 was 0.124 µM under setting [3] and 0.124 µM under setting [1].
For the molecule `CCCC[C@@H]1NC(=O)[C@H](CC(=O)O)NC(=O)[C@]2(CC=CCCCC3(CCCC=CCCCOC(=O)N4CC[C@@](C(=O)N[C@@H](Cc5ccccc5Cl)C(=O)N[C@@H](Cc5csc6ccccc56)C(=O)N[C@@H](CC(C)C)C(N)=O)(C4)NC(=O)[C@H](CC(C)C)NC(=O)[C@H](Cc4ccccc4)NC(=O)[C@H](C)NC(=O)[C@H](C)NC(=O)[C@H](CC(=O)O)NC(=O)[C@H](CC(=O)O)NC3=O)NC1=O)CCCN2C(C)=O` (stereo partly drawn) [I-1421, Ac-PL3-Asp-nLeu-B5-Asp-Asp-Ala-Ala-Phe-Leu-PyrS2-2C1F-BztA-Leu-NH2], the IC50 was 0.134 µM under setting [3] and 0.134 µM under setting [1].
In the case of `CC(=O)N1CCC[C@]12CC=CCCCC1(CCCC=CCCCOC(=O)N3CC[C@@](C(=O)N[C@@H](Cc4ccccc4Cl)C(=O)N[C@@H](Cc4csc5ccccc45)C(=O)N[C@@H](CC(C)C)C(N)=O)(C3)NC(=O)[C@H](CC(C)C)NC(=O)[C@H](Cc3ccccc3)NC(=O)[C@H](C)NC(=O)[C@H](C)NC(=O)[C@H](CC(=O)O)NC(=O)[C@H](CC(=O)O)NC1=O)NC(=O)[C@H](CC(N)=O)NC(=O)[C@H](CC(=O)O)NC2=O` (stereo partly drawn) [I-1422, Ac-PL3-Asp-Asn-B5-Asp-Asp-Ala-Ala-Phe-Leu-PyrS2-2C1F-BztA-Leu-NH2], under setting [2], the IC50 was 0.388 µM.
Molecule `CC(=O)N1CCC[C@]12CC=CCCCC1(CCCC=CCCCOC(=O)N3CC[C@@](C(=O)N[C@@H](Cc4ccccc4Cl)C(=O)N[C@@H](Cc4csc5ccccc45)C(=O)N[C@@H](CC(C)C)C(N)=O)(C3)NC(=O)[C@H](CC(C)C)NC(=O)[C@H](Cc3ccccc3)NC(=O)[C@H](C)NC(=O)[C@H](C)NC(=O)[C@H](CC(=O)O)NC(=O)[C@H](CC(=O)O)NC1=O)NC(=O)[C@H](CO)NC(=O)[C@H](CC(=O)O)NC2=O` (stereo partly drawn) [I-1423, Ac-PL3-Asp-Ser-B5-Asp-Asp-Ala-Ala-Phe-Leu-PyrS2-2C1F-BztA-Leu-NH2] returned an IC50 under setting [2] of 0.389 µM.
For `CC(=O)N1CCC[C@]12CC=CCCCC1(CCCC=CCCCOC(=O)N3CC[C@@](C(=O)N[C@@H](Cc4ccccc4Cl)C(=O)N[C@@H](Cc4csc5ccccc45)C(=O)N[C@@H](CC(C)C)C(N)=O)(C3)NC(=O)[C@H](CC(C)C)NC(=O)[C@H](Cc3ccccc3)NC(=O)[C@H](C)NC(=O)[C@H](C)NC(=O)[C@H](CC(=O)O)NC(=O)[C@H](CC(=O)O)NC1=O)NC(=O)[C@H]([C@@H](C)O)NC(=O)[C@H](CC(=O)O)NC2=O` (stereo partly drawn) [I-1424, Ac-PL3-Asp-Thr-B5-Asp-Asp-Ala-Ala-Phe-Leu-PyrS2-2C1F-BztA-Leu-NH2], the IC50 under setting [2] was 0.235 µM.
